T/C data for seven molecules are collected here from PubChem BioAssay AID248 (DTP/NCI, 2004).

This test concerns L1210 leukemia ip in BDF1 mice, survival T/C. The test is described as follows: NCI In Vivo Anticancer Drug Screen. Data for tumor model L1210 Leukemia (intraperitoneal) in B6D2F1 (BDF1) mice. The following applies: endpoint: mean survival time, higher = longer survival. The gist of the method:
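Transplanted-tumor mice were given test agent; controls received vehicle only. Survival readings from the two groups were divided (treated over control).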

Setting [1] is: dose: 100.0 mg/kg/injection, schedule: Q01DX001 (ip), vehicle: carboxymethylcellulose (CMC).
Where [2] appears, read: dose: 100.0 mg/kg/injection, schedule: Q04DX003 (ip), vehicle: saline with Tween-80.
[3] abbreviates: dose: 200.0 mg/kg/injection, schedule: Q01DX001 (ip), vehicle: carboxymethylcellulose (CMC).
The mark [4] stands for this setting: dose: 100.0 mg/kg/injection, schedule: Q04DX003 (ip), vehicle: Klucel (hydroxypropylcellulose) (HPC).
The mark [5] stands for this setting: dose: 200.0 mg/kg/injection, schedule: Q04DX003 (ip), vehicle: Klucel (hydroxypropylcellulose) (HPC).
Setting [6] is: dose: 400.0 mg/kg/injection, schedule: Q04DX003 (ip), vehicle: Klucel (hydroxypropylcellulose) (HPC).

Values joined by “and” are separate entries in the source; they are usually repeats but may differ in a detail not shown here. Equal entries are not always repeated. Inconclusive results and toxic doses are left out.

`CN(C)N=Nc1ccccc1`: the T/C was 102 % of control (dose: 4.0 mg/kg/injection, schedule: Q03HX008 (ip), vehicle: other); 101 % of control (dose: 4.0 mg/kg/injection, schedule: Q03HX016 (ip), vehicle: other); 105 % of control (dose: 4.0 mg/kg/injection, schedule: Q03HX024 (ip), vehicle: other); 103 % of control (dose: 8.0 mg/kg/injection, schedule: Q03HX008 (ip), vehicle: other); 103 % of control (dose: 8.0 mg/kg/injection, schedule: Q03HX016 (ip), vehicle: other); 108 % of control (dose: 8.0 mg/kg/injection, schedule: Q03HX024 (ip), vehicle: other). Also, the T/C by setting is: (dose: 12.5 mg/kg/injection, schedule: Q04DX003 (ip), vehicle: saline with Tween-80) 102 % of control; (dose: 15.0 mg/kg/injection, schedule: Q01DX015 (ip), vehicle: carboxymethylcellulose (CMC)) 104 % of control and 106 % of control and 107 % of control; (dose: 16.0 mg/kg/injection, schedule: Q01DX005 (iv), vehicle: other) 111 % of control; (dose: 16.0 mg/kg/injection, schedule: Q01DX009 (ip), vehicle: other) 103 % of control; (dose: 16.0 mg/kg/injection, schedule: Q01DX009 (sc), vehicle: other) 107 % of control; (dose: 16.0 mg/kg/injection, schedule: Q03HX008 (ip), vehicle: other) 114 % of control. Moreover, the T/C was 117 % of control (dose: 16.0 mg/kg/injection, schedule: Q03HX016 (ip), vehicle: other); 104 % of control (dose: 18.0 mg/kg/injection, schedule: Q01DX015 (ip), vehicle: carboxymethylcellulose (CMC)); 123 % of control (dose: 25.0 mg/kg/injection, schedule: Q04DX003 (ip), vehicle: saline with Tween-80); 108 % of control (dose: 26.0 mg/kg/injection, schedule: Q01DX015 (ip), vehicle: carboxymethylcellulose (CMC)); 110 % of control and 207 % of control (dose: 30.0 mg/kg/injection, schedule: Q01DX015 (ip), vehicle: carboxymethylcellulose (CMC)); 108 % of control (dose: 31.25 mg/kg/injection, schedule: Q01DX001 (ip), vehicle: saline with Tween-80). For the same molecule, the T/C was 109 % of control (dose: 32.0 mg/kg/injection, schedule: Q01DX001 (ip), vehicle: other); 102 % of control (dose: 32.0 mg/kg/injection, schedule: Q01DX001 (sc), vehicle: other); 109 % of control (dose: 32.0 mg/kg/injection, schedule: Q01DX005 (iv), vehicle: other); 122 % of control (dose: 32.0 mg/kg/injection, schedule: Q01DX009 (ip), vehicle: other); 114 % of control (dose: 32.0 mg/kg/injection, schedule: Q01DX009 (sc), vehicle: other); 120 % of control (dose: 32.0 mg/kg/injection, schedule: Q03HX024 (ip), vehicle: other). Further, the T/C is 102 % of control (dose: 32.0 mg/kg/injection, schedule: Q04DX003 (ip), vehicle: other); 117 % of control (dose: 32.0 mg/kg/injection, schedule: Q04DX003 (ip), vehicle: saline); 107 % of control (dose: 32.0 mg/kg/injection, schedule: Q08DX002 (ip), vehicle: other); 97 % of control (dose: 50.0 mg/kg/injection, schedule: Q01DX001 (ip), vehicle: carboxymethylcellulose (CMC)); 115 % of control (dose: 50.0 mg/kg/injection, schedule: Q04DX003 (ip), vehicle: saline with Tween-80); 119 % of control and 88 % of control (dose: 60.0 mg/kg/injection, schedule: Q01DX015 (ip), vehicle: carboxymethylcellulose (CMC)). Further, the T/C was 111 % of control (dose: 62.5 mg/kg/injection, schedule: Q01DX001 (ip), vehicle: saline with Tween-80); 112 % of control (dose: 64.0 mg/kg/injection, schedule: Q01DX001 (ip), vehicle: other); 102 % of control (dose: 64.0 mg/kg/injection, schedule: Q01DX001 (sc), vehicle: other); 120 % of control (dose: 64.0 mg/kg/injection, schedule: Q01DX009 (ip), vehicle: other); 122 % of control (dose: 64.0 mg/kg/injection, schedule: Q01DX009 (oral), vehicle: other); 114 % of control (dose: 64.0 mg/kg/injection, schedule: Q04DX003 (ip), vehicle: other). Moreover, the T/C is 101 % of control (dose: 64.0 mg/kg/injection, schedule: Q08DX002 (ip), vehicle: other); 93 % of control under setting [1]; 105 % of control and 117 % of control under setting [2]; 123 % of control (dose: 128.0 mg/kg/injection, schedule: Q01DX001 (ip), vehicle: other); 109 % of control (dose: 128.0 mg/kg/injection, schedule: Q01DX001 (oral), vehicle: other); 112 % of control (dose: 128.0 mg/kg/injection, schedule: Q01DX001 (sc), vehicle: other). The T/C runs as follows: (dose: 128.0 mg/kg/injection, schedule: Q01DX009 (oral), vehicle: other) 122 % of control; under setting [3], 123 % of control; (dose: 256.0 mg/kg/injection, schedule: Q01DX001 (sc), vehicle: other) 121 % of control.
For the molecule `CCOC(=O)/C=C(\C)Nc1ccc(NC(C)=O)cc1`, the T/C was 107 % of control (dose: 50.0 mg/kg/injection, schedule: Q01DX009 (ip), vehicle: water); 121 % of control (dose: 100.0 mg/kg/injection, schedule: Q01DX009 (ip), vehicle: water); 96 % of control (dose: 100.0 mg/kg/injection, schedule: Q04DX003 (ip), vehicle: water); 98 % of control (dose: 200.0 mg/kg/injection, schedule: Q01DX009 (ip), vehicle: water); 96 % of control (dose: 200.0 mg/kg/injection, schedule: Q04DX003 (ip), vehicle: water); 100 % of control (dose: 400.0 mg/kg/injection, schedule: Q01DX009 (ip), vehicle: water). In addition, under “dose: 400.0 mg/kg/injection, schedule: Q04DX003 (ip), vehicle: water”, the T/C is 101 % of control.
For `CC(=O)NCc1ccccc1`, the T/C (dose: 100.0 mg/kg/injection, schedule: Q01DX009 (ip), vehicle: saline with Tween-80) was 97 % of control; the T/C under setting [4] was 95 % of control; the T/C (dose: 200.0 mg/kg/injection, schedule: Q01DX009 (ip), vehicle: saline with Tween-80) was 92 % of control; the T/C under setting [5] was 100 % of control; the T/C (dose: 400.0 mg/kg/injection, schedule: Q01DX009 (ip), vehicle: saline with Tween-80) was 100 % of control; the T/C under setting [6] is 100 % of control.
Turning to `CCOC(=O)C(=O)c1c(C)[nH]c2ccccc12`, the T/C was 96 % of control (dose: 100.0 mg/kg/injection, schedule: Q01DX009 (ip), vehicle: Klucel (hydroxypropylcellulose) (HPC)); 103 % of control under setting [4]; 92 % of control (dose: 200.0 mg/kg/injection, schedule: Q01DX009 (ip), vehicle: Klucel (hydroxypropylcellulose) (HPC)); 95 % of control under setting [5]; 94 % of control (dose: 400.0 mg/kg/injection, schedule: Q01DX009 (ip), vehicle: Klucel (hydroxypropylcellulose) (HPC)); 97 % of control under setting [6].
With `Nc1ncnc(Nc2ccccc2Oc2ccccc2)n1`, the T/C by setting is: under setting [1], 97 % of control; under setting [3], 92 % of control; (dose: 400.0 mg/kg/injection, schedule: Q01DX001 (ip), vehicle: carboxymethylcellulose (CMC)) 86 % of control.
Regarding `CC1=NN(c2ccc(S(=O)(=O)O)cc2)C(=O)/C1=C/c1ccc(Cl)cc1Cl`, the T/C reads like this: (dose: 100.0 mg/kg/injection, schedule: Q01DX001 (ip), vehicle: saline) 110 % of control; under setting [4], 105 % of control; (dose: 200.0 mg/kg/injection, schedule: Q01DX001 (ip), vehicle: saline) 96 % of control; under setting [5], 97 % of control; (dose: 400.0 mg/kg/injection, schedule: Q01DX001 (ip), vehicle: saline) 104 % of control; under setting [6], 94 % of control.
With `C#CC1(OC(=O)NS(=O)(=O)c2ccc(C)cc2)CCCCC1`, the T/C by setting is: (dose: 100.0 mg/kg/injection, schedule: Q01DX001 (ip), vehicle: saline with Tween-80) 97 % of control; under setting [2], 103 % of control; (dose: 200.0 mg/kg/injection, schedule: Q01DX001 (ip), vehicle: saline with Tween-80) 101 % of control; (dose: 200.0 mg/kg/injection, schedule: Q04DX003 (ip), vehicle: saline with Tween-80) 95 % of control; (dose: 400.0 mg/kg/injection, schedule: Q01DX001 (ip), vehicle: saline with Tween-80) 103 % of control; (dose: 400.0 mg/kg/injection, schedule: Q04DX003 (ip), vehicle: saline with Tween-80) 101 % of control.
